Results taken from patent US4386103A, “Dichloroamino acid derivatives useful as potent germicidal and fungicidal agents” (Merck & Co., Inc., priority 1981, dated 1983).

Assays:
Format in all cases: cell-based
[1] = tested on: Staphylococcus aureus; test: Contact germicidal screen, Staphylococcus aureus ATCC No. 6538
Experimental: (§1) The organisms used in the contact germicidal screen are all maintained as stock cultures on nutrient agar […] 4° C. They are transferred and biochemically diagnosed monthly. The five organisms used are: The media used are: […] Overnight cultures of the test organisms are grown in tryptose phosphate broth. After 15-16 hours, the cultures are centrifuged at […] for 15 minutes, and the supernatant replaced with fresh warm (37° C.) media. After two hours of incubation, the absorbance of the culture at 650 nm is determined and diluted with nutrient broth to 1×10^7 colony forming units per ml (using a previous determined standard curve: colony forming units/ml vs. absorbance at 650). The diluted cultures are maintained at 4°-8° C. throughout the screen. The compounds are weighed into sterile 100 ml volumetric flasks, and immediately before screening dissolved in one of the following buffers: 0.1 M NaOAc pH 4.6 or 0.1 M NaH2 PO4 pH 7.0. If solubility poses a problem, 10-30% methanol is used to effect solution. Two denaturing agents are also tested: […] Horse Serum restored with 100 ml distilled water and 10% Trition×100. When used, 2.5 ml of the denaturing agent is mixed with 2.5 ml of double strength test solution thirty minutes before the bacterial suspension is added. The screen is initiated when 0.2 ml of the bacterial suspension is added to 5.0 ml of the test solution contained in a sterile 25 ml glass stoppered flask. At intervals of 0.5, 2.5, 5.0, 10.0 and 15.0 minutes, a loopful of the inoculated test solution is subcultured into 5 ml of sterile nutrient broth and mixed with a vortex, the high dilution serving to stop the action of the compound. All of the subculture tubes are incubated at 37° C. and checked for signs of growth by turbidity at 1, 3, 5 and 7 days. The earliest subculture time at which no growth is present is considered the endpoint and is recorded as the sterilization time. An aliquot of 0.2 ml of the diluted culture is transferred to 5 ml of buffer to simulate 0.2 ml in 5 ml of test solution. (a) Purity: A loopful of the inoculated buffer is streaked onto nutrient agar to check colony morphology and lack of contaminants. (b) Viability: A loopful of the inoculated buffer is subcultured to 5 ml of nutrient broth as in the screen and incubated at 37° C. for 24 hours. (c) Dilution of the Test Solution: A loopful of the test solution is transferred to a 5 ml tube of nutrient broth, and a loopful of the inoculated buffer is transferred to the same tube of broth. […] (d) Purity of Organisms in the Test Solution: After the 15 minute subculture, a loopful of the inoculated test solution is streaked onto nutrient agar to insure that contamination has not occurred during the screen. (e) lack of Bactericidal Activity of Buffers and Other Solvents: Before a buffer or other solvent is used as a diluent, it is screened against the five organisms to insure that the buffer or solvent has no antibacterial activity itself.

[2] = tested on: Pseudamonas aeruginosa; test: Contact germicidal screen, Pseudamonas aeruginosa ATCC No. 14502
Experimental: as §1

[3] = tested on: Aspergillus fumigatus; test: Contact fungicidal screen, Aspergillus fumigatus; details: 0.1M NaOAc pH 4.6
Experimental: (§2) The organisms used in the Contact Fungicidal Screen are a dermatophyte, trychophyton mentagrophytes, frequently associated with athlete's foot; a yeast, Candida albican, causative agent of thrush and vaginitis; a phycomycete, Rhizopus oryzae, commonly known as black bread mold; an ascomycete, Aspergillus fumagatis, found in chicken droppings and causing lung infections; and another dermatophyte, Microsporum canis, which causes ringworm. These organisms are maintained as stock cultures at 4° C. on agar […] of the following composition: dextrose 2%, Neopeptone (Difco) 1%, agar 2%. Fluid medium of the same nutrient composition (without agar) was used to test the viability of the organisms after exposure to the fungicide. This medium is also known as Sabouraud's medium. Sabouraud's agar plate cultures of Aspergillus fumigatus, Microsporum canis, and a different culture of Trychophyton mentagrophytes are prepared by planting an inoculum at the center of an agar plate and incubating at 25°-30° C. for seven to ten days. The mycelial mats are removed from the surface of the agar and prepared in the same manner as the Rhizopus culture. The compounds are weighed into heat sterilized 100 ml volumetric flasks and immediately before screening dissolved in 0.1 M NaOAc pH 4.6 buffer (test solutions). The Aspergillus, Candida, Microsporum and Rhizopus species are screened in a slightly different manner. Basically, the procedure for the Contact Germicidal Efficiency Screen is utilized. After the test solutions are made up, 5 ml aliquots are pipetted into heat sterilized 25 ml glass stoppered erlenmeyer flasks. The screen is initiated when 0.5 ml of the 5×10^6 cell (spore) per ml suspension is added to the flask containing 5 ml of the test solution. […] The subculture tubes are incubated at 25°-30° C. for ten days with daily observation for mycelial growth. The earliest subculture time at which no growth is present is considered the endpoint and is recorded as the sterilization time. To insure the viability of the culture, a 0.5 ml aliquot of the 5×10^6 cells (spores) per ml suspension is transferred to 5 ml of the pH 4.6 buffer. A loopful of the inoculated buffer is then subcultured to 7 ml of fluid Sabouraud's medium and incubated at 25°-30° C. for ten days. To insure that the dilution of the test solution into the subculture medium does stop the action, a loopful of the test solution and a loopful of the inoculated buffer are transferred into the same subculture tube. This tube is also incubated at 25°-30° C. for ten days.

[4] = tested on: Microsporum canis; test: Contact fungicidal screen, Microsporum canis; details: 0.1M NaOAc pH 4.6
Experimental: as §2

[5] = 10.0+ PPM, 0.1M NaOAc pH 4.6, screened simultaneously with four other compounds
[6] = 51.0 PPM, Triton X100 (10% solution):pH 4.6 buffer 1:1
[7] = 51.0 PPM, horse serum:pH 4.6 buffer 1:1
[8] = 300 PPM with 50% Horse Serum, 0.1M NaOAc pH 4.6
[9] = 300 PPM with 50% Triton X100, 0.1M NaOAc pH 4.6
[10] = 300 PPM, pH 4.6 buffer with 10% serum
[11] = 300 PPM, pH 4.6 buffer with 20% serum
[12] = 300 PPM, pH 4.6 buffer with 35% serum
[13] = 304.6 PPM, horse serum:pH 4.6 buffer 1:1
[14] = 304.8 PPM, Triton X100 (10% solution):pH 4.6 buffer 1:1
[15] = 606.9 PPM, pH 4.6 buffer with 33% serum
[16] = 899.25 PPM, pH 4.6 buffer with 25% serum
[17] = 1000 PPM with 50% Horse Serum, 0.1M NaOAc pH 4.6
[18] = 1001.2 PPM, horse serum:pH 4.6 buffer 1:1
[19] = 1016.0 PPM, 0.1M NaH2PO4 pH 7.0

## CC(C)(CC(=O)O)N(Cl)Cl [(II)]
[1]; 1.8 PPM, 0.1M NaOAc pH 4.6
  Sterilization Time: 15.0 min
[1]; 4.5 PPM, 0.1M NaOAc pH 4.6
  Sterilization Time: 10.0 min
[1]; [5]
  Sterilization Time: 2.5 min
[1]; 10 PPM, 0.1M NaOAc pH 4.6
  Sterilization Time (summary): 2.5 min
[1]; 10.0 PPM, 0.1M NaOAc pH 4.6
  Sterilization Time: 2.5 min
[1]; 12.2 PPM, 0.1M NaOAc pH 4.6
  Sterilization Time: 2.5 min
[1]; 32.1 PPM, 0.1M NaOAc pH 4.6
  Sterilization Time: 2.5 min
[1]; [6]
  Sterilization Time: 2.5 min
[1]; [7]
  Sterilization Time: 15 min
[1]; 71.7 PPM, 0.1M NaOAc pH 4.6
  Sterilization Time: 0.5 min
[1]; 100 PPM, 0.1M NaOAc pH 4.6
  Sterilization Time (summary): 0.5 min
[1]; 104.7 PPM, 0.1M NaOAc pH 4.6
  Sterilization Time: 0.5 min
[1]; 107.8 PPM, 0.1M NaH2PO4 pH 7.0
  Sterilization Time: 10.0 min
[1]; 298.9 PPM, 0.1M NaOAc pH 4.6
  Sterilization Time: 0.5 min
[1]; [8]
  Sterilization Time (summary): 15 min
[1]; [9]
  Sterilization Time (summary): 0.5 min
[1]; [10]
  Sterilization Time: 0.5 min
[1]; [11]
  Sterilization Time: 2.5 min
[1]; [12]
  Sterilization Time: 10.0 min
[1]; [13]
  Sterilization Time: 15 min
[1]; [14]
  Sterilization Time: 0.5 min
[1]; 316.6 PPM, 0.1M NaH2PO4 pH 7.0
  Sterilization Time: 5.0 min
[1]; [15]
  Sterilization Time: 0.5 min
[1]; [16]
  Sterilization Time: 0.5 min
[1]; [17]
  Sterilization Time (summary): 0.5 min
[1]; 1000 PPM, 0.1M NaOAc pH 4.6
  Sterilization Time (summary): 0.5 min
[1]; [18]
  Sterilization Time: 0.5 min
[1]; 1014.8 PPM, 0.1M NaOAc pH 4.6
  Sterilization Time: 0.5 min
[1]; [19]
  Sterilization Time: 2.5 min
[2]; 1.8 PPM, 0.1M NaOAc pH 4.6
  Sterilization Time: 15 min
[2]; 4.5 PPM, 0.1M NaOAc pH 4.6
  Sterilization Time: 5.0 min
[2]; [5]
  Sterilization Time: 2.5 min
[2]; 10 PPM, 0.1M NaOAc pH 4.6
  Sterilization Time (summary): 2.5 min
[2]; 10.0 PPM, 0.1M NaOAc pH 4.6
  Sterilization Time: 2.5 min
[2]; 12.2 PPM, 0.1M NaOAc pH 4.6
  Sterilization Time: 2.5 min
[2]; 32.1 PPM, 0.1M NaOAc pH 4.6
  Sterilization Time: 2.5 min
[2]; [6]
  Sterilization Time: 2.5 min
[2]; [7]
  Sterilization Time: 15 min
[2]; 71.7 PPM, 0.1M NaOAc pH 4.6
  Sterilization Time: 0.5 min
[2]; 100 PPM, 0.1M NaOAc pH 4.6
  Sterilization Time (summary): 0.5 min
[2]; 104.7 PPM, 0.1M NaOAc pH 4.6
  Sterilization Time: 0.5 min
[2]; 107.8 PPM, 0.1M NaH2PO4 pH 7.0
  Sterilization Time: 15 min
[2]; 298.9 PPM, 0.1M NaOAc pH 4.6
  Sterilization Time: 0.5 min
[2]; [8]
  Sterilization Time (summary): 15 min
[2]; [9]
  Sterilization Time (summary): 0.5 min
[2]; [10]
  Sterilization Time: 0.5 min
[2]; [11]
  Sterilization Time: 2.5 min
[2]; [12]
  Sterilization Time: 10.0 min
[2]; [13]
  Sterilization Time: 15 min
[2]; [14]
  Sterilization Time: 0.5 min
[2]; 316.6 PPM, 0.1M NaH2PO4 pH 7.0
  Sterilization Time: 5.0 min
[2]; [15]
  Sterilization Time: 2.5 min
[2]; [16]
  Sterilization Time: 0.5 min
[2]; [17]
  Sterilization Time (summary): 2.5 min
[2]; 1000 PPM, 0.1M NaOAc pH 4.6
  Sterilization Time (summary): 0.5 min
[2]; [18]
  Sterilization Time: 2.5 min
[2]; 1014.8 PPM, 0.1M NaOAc pH 4.6
  Sterilization Time: 0.5 min
[2]; [19]
  Sterilization Time: 2.5 min
[3]; 10 PPM
  Sterilization Time: 15 min
[3]; 100 PPM
  Sterilization Time: 15 min
[3]; 1000 PPM
  Sterilization Time: 15 min
[4]; 10 PPM
  Sterilization Time: 15 min
[4]; 100 PPM
  Sterilization Time: 10.0 min
[4]; 1000 PPM
  Sterilization Time: 2.5 min
